Measured values taken from patent US7135466B2 (Kirin Beer Kabushiki Kaisha, priority 1999, dated 2006).
Read-outs that look alike come from different tables or passages of the source.

Tests used:
PDGF-Ra = target: T1, PDGF-Ra (Homo sapiens, UniProt P16234); experiment: Inhibitory activity against PDGF-Ra phosphorylation by PDGF-AA stimulation using G292; format: cell-based; conditions: for IC50: > means inhibition at indicated concentration not more than 50%, < and << not less than 50%, read-out: PDGF (E) IC50
T1 construct: host or cells: G-292 human osteosarcoma cells
Outline: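 Phosphorylated PDGF-Ra was measured colorimetrically (450 nm) after tyrosine-phosphorylated proteins from G-292 lysates were bound to PY-20-coated wells and detected with anti-PDGF-Ra antibody. Compound preincubation lasted 1 hr, followed by 50 ng/ml PDGF-AA for 5 min.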

c-kit = target: T2, c-kit (Homo sapiens, UniProt P10721); experiment: Inhibitory activity against c-kit autophosphorylation (MO7e cells, h-SCF); format: cell-based; conditions: for IC50: MO7e cells, read-out: c-kit IC50; for inhibition at 1 µM: Mo7e, at 1000 nM
T2 construct: MO7e (human megakaryocytic leukemia cell line) which had been arrested for 20 hr; endogenous in cells; host or cells: MO7e human megakaryocytic leukemia cell line
Outline: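 Phospho-c-kit ELISA: plate-bound PY-20 anti-phosphotyrosine captures lysate, anti-c-kit plus peroxidase-labelled secondary antibody detect, read at 450 nm. Lysates come from 20 hr-arrested MO7e cells given compound for 1 hr before a 5 min 50 ng/ml h-SCF stimulus.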

[1] = figure within parentheses in −( ) or >1000( )

T1 sequence (P16234 24-1089): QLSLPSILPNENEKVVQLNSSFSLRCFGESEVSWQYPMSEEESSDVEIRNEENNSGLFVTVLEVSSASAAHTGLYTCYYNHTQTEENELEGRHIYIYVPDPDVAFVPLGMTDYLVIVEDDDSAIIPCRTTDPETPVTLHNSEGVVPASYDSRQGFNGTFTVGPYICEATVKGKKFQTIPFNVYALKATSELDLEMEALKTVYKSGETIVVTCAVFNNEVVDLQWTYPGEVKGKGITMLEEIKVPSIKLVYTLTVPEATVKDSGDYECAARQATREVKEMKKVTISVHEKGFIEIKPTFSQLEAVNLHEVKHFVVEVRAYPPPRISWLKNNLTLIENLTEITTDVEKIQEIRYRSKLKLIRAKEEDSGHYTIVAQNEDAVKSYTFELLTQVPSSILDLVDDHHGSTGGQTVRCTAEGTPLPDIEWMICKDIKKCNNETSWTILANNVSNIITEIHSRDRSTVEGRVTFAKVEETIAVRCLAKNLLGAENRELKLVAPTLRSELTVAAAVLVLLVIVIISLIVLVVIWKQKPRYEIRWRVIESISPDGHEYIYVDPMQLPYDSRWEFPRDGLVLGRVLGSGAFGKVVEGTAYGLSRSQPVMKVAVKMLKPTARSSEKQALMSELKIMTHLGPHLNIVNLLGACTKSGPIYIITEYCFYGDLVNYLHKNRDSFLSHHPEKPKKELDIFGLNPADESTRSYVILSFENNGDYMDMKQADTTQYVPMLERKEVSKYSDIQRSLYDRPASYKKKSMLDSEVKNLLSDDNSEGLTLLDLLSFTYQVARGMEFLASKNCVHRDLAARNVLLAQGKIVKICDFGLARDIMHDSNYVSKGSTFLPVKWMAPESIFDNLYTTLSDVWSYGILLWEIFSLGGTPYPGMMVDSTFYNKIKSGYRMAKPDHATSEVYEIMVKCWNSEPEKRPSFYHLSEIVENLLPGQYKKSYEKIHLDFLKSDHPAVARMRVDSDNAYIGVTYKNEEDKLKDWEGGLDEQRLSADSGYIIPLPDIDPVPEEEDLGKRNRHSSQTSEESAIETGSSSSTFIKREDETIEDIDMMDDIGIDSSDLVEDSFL
T2 sequence (P10721 26-976): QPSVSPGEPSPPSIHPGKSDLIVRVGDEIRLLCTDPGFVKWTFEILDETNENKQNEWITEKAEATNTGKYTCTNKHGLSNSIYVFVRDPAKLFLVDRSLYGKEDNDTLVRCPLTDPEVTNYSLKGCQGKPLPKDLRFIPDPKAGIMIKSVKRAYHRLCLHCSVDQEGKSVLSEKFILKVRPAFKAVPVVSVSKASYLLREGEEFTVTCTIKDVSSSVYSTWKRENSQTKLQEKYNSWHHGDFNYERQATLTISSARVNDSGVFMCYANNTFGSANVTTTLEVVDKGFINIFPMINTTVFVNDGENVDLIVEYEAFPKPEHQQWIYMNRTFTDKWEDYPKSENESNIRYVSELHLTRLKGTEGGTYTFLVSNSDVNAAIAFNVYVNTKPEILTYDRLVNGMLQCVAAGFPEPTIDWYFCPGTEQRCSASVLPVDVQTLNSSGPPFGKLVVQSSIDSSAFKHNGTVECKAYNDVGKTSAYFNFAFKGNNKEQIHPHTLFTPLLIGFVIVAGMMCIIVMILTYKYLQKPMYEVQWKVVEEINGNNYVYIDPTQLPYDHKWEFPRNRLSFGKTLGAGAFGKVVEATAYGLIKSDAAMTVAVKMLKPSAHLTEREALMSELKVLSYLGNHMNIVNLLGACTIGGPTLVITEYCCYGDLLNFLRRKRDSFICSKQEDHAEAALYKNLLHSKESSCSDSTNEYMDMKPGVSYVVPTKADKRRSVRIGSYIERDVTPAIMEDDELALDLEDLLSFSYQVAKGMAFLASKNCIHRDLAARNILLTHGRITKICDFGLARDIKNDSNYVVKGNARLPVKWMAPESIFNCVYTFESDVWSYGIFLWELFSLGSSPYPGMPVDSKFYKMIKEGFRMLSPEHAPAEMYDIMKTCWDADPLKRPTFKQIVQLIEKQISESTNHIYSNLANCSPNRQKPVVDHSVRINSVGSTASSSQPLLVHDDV

COc1cc2nccc(Oc3ccc(NC(=S)NC(=O)c4ccc(Br)s4)cc3Cl)c2cc1OC [Example 693, N-[(5-Bromo-2-thienyl)carbonyl]-N′-{3-chloro-4-[(6,7-dimethoxy-4-quinolyl)oxy]phenyl}thiourea]
IC50 (PDGF-Ra): 56 nM
IC50 (c-kit; 50 ng/ml h-SCF): > 1000 nM
inhibition at 1 µM (c-kit; [1]): 46%

COc1cc2nccc(Oc3ccc(NC(=O)OC4CCCC4)c(C)c3C)c2cc1OC [Example 365, Cyclopentyl N-{4-[(6,7-dimethoxy-4-quinolyl)oxy]-2,3-dimethylphenyl}carbamate]
IC50 (PDGF-Ra; Pharmacological Test Example 1): < 10 nM
IC50 (c-kit; h-SCF 50 ng/ml): 47 nM

COc1cc2ncnc(Oc3ccc(NC(=O)OCCOc4ccccc4F)cc3)c2cc1OC [Example 206, 2-(2-Fluorophenoxy)ethyl N-{4-[(6,7-dimethoxy-4-quinazolinyl)oxy]phenyl}carbamate]
IC50 (PDGF-Ra; Pharmacological Test Example 1): 13 nM
IC50 (c-kit; h-SCF 50 ng/ml): 80 nM

COc1cc2nccc(Oc3ccc(NC(=S)NC(=O)Cc4ccccc4Cl)cc3)c2cc1OC [Example 723, N-[2-(2-Chlorophenyl)acetyl]-N′-{4-[(6,7-dimethoxy-4-quinolyl)oxy]phenyl}thiourea]
IC50 (PDGF-Ra): 17 nM
IC50 (c-kit; 50 ng/ml h-SCF): 380 nM

COc1cc2nccc(Oc3ccc(NC(=O)Oc4c(OC)cccc4OC)c(C)c3C)c2cc1OC [Example 282, 2,6-Dimethoxyphenyl N-{4-[(6,7-dimethoxy-4-quinolyl)oxy]-2,3-dimethylphenyl}carbamate]
IC50 (PDGF-Ra; Pharmacological Test Example 1): 34 nM
IC50 (c-kit; h-SCF 50 ng/ml): 48 nM

COc1cc2nccc(Oc3ccc(OCCCOc4ccc(F)cc4)cc3)c2cc1OC [Example 798, 4-{4-[3-(4-Fluorophenoxy)propoxy]phenoxy}-6,7-dimethoxyquinoline]
IC50 (PDGF-Ra): < 10 nM
IC50 (c-kit; 50 ng/ml h-SCF): 439 nM

CCN(C(=S)NC(=O)Cc1ccccc1)c1ccc(Oc2ccnc3cc(OC)c(OC)cc23)cc1 [Example 1149, N-{4-[(6,7-Dimethoxy-4-quinolyl)oxy]phenyl}-N-ethyl-N′-(2-phenylacetyl)thiourea]
IC50 (PDGF-Ra): 43 nM
IC50 (c-kit; h-SCF stimulation): 150 nM

CCN(C(=O)OC1CCCCC1)c1ccc(Oc2ncnc3cc(OC)c(OC)cc23)cc1 [Example 477, Cyclohexyl N-{4-[(6,7-dimethoxy-4-quinazolinyl)oxy]phenyl}-N-ethylcarbamate]
IC50 (PDGF-Ra): 59 nM
IC50 (c-kit; 50 ng/ml h-SCF): 248 nM

COc1cc2nccc(Oc3ccc(NC(=O)OCC4CCCC4)c(C)c3C)c2cc1OC [Example 396, Cyclopentylmethyl N-{4-[(6,7-dimethoxy-4-quinolyl)oxy]-2,3-dimethylphenyl}carbamate]
IC50 (PDGF-Ra; Pharmacological Test Example 1): 19 nM
IC50 (c-kit; h-SCF 50 ng/ml): 86 nM

COc1cc2nccc(Oc3ccc(NC(=S)NC(=O)c4ccccc4C)c(Cl)c3)c2cc1OC [Example 1101, N-{2-Chloro-4-[(6,7-dimethoxy-4-quinolyl)oxy]phenyl}-N′-(2-methylbenzoyl)thiourea]
IC50 (PDGF-Ra): > 100 nM
inhibition at 0.1 µM (PDGF-Ra; G292, figure in parentheses in >100( ), at 100 nM, read-out: PDGF (E) inhibition (%) at 100 nM): 37%
inhibition at 1 µM (c-kit; figure in parentheses in −( )): 26%

C#CCC(CC)OC(=O)N(C)c1ccc(Oc2ccnc3cc(OC)c(OC)cc23)cc1 (stereo not drawn) [Example 496, 1-Ethyl-3-butynyl N-{4-[(6,7-dimethoxy-4-quinolyl)oxy]phenyl}-N-methylcarbamate]
IC50 (PDGF-Ra): 45 nM
inhibition at 1 µM (c-kit; [1]): 32%

COc1cc2nccc(Oc3ccc(NC(=O)NC4CC(C)(C)NC(C)(C)C4)cc3)c2cc1OC [Example 562, N-{4-[(6,7-Dimethoxy-4-quinolyl)oxy]-phenyl}-N′-(2,2,6,6-tetramethyl-4-piperidyl)urea]
IC50 (PDGF-Ra): 80 nM
inhibition at 1 µM (c-kit; [1]): 27%

COc1cc2nccc(Oc3ccc(NC(=S)NC(=O)CCCc4ccccc4)cc3)c2cc1OC [Example 725, N-{4-[(6,7-Dimethoxy-4-quinolyl)oxy]phenyl}-N′-(4-phenylbutanoyl)thiourea]
IC50 (PDGF-Ra): < 10 nM
IC50 (c-kit; 50 ng/ml h-SCF): 413 nM

CCN(CC)CCCOC(=O)Nc1ccc(Oc2ccnc3cc(OC)c(OC)cc23)c(C)c1C [Example 428, 3-(Diethylamino)propyl N-{4-[(6,7-dimethoxy-4-quinolyl)oxy]-2,3-dimethylphenyl}carbamate]
IC50 (PDGF-Ra): 64 nM
IC50 (c-kit; 50 ng/ml h-SCF): 158 nM
